Experimental data published in patent publication US20040235049A1, “Device for presentation of polypeptides able to be used as a chip for miniaturised detection of molecules” (priority 2001, published 2004).
Like-named read-outs stand apart in the source and are kept apart here.

How the values were obtained:
[1] = system: antibodies directed against NS3 (HCV) in sera; assay type: binding, human
[2] = target: rhodamine-conjugated streptavidin (Streptomyces avidinii, UniProt P22629); settings: streptavidin 10^−3 mg/ml
Description: (§1) Each concentration is spotted 6 times per slide.
The slides are then incubated in the presence of 150 μl of a 10^−3 mg/ml solution of rhodamine-conjugated streptavidin (solution of streptavidin Tetramethyl Rhodamine conjugate (Molecular Probes, Oregon, USA)) diluted in an 0.01 M PBS buffer, pH 7.2 in 15 the presence of different concentrations of biotin (10^−3 M, 10^−4 M, 10^−5 M, 10^−7 M and 0 M under a glass cover slip (24×60 mm). The slides are incubated for 2 hours at 37° C. under a moist atmosphere. A series of 4 successive washings is carried out with PBS solution to which 0.05% Tween 20 had been added. The slides are then rinsed, dried and analysed as stated above.

[3] = system: Rhodamine Conjugated affinity Purified anti-Biotin [goat]
Description: as §1
(§2) The slides are incubated for 2 hours at 37° C. under a moist atmosphere. A series of 4 successive washings is carried out with PBS solution to which 0.05% Tween 20 had been added. The slides are then rinsed with a deionised water wash-bottle then with 95° ethanol for 1 minute, then dried for 15 minutes in the ambient atmosphere.
(§3) The results expressed in the following table correspond to the mean fluorescence and to the standard deviation of the 6 spots of each concentration obtained after incubation of the rhodamine-conjugated streptavidin and the rhodamine- conjugated anti-biotin antibody respectively.

[4] = target: Streptavidin Tetramethyl Rhodamine conjugate (Streptomyces avidinii, UniProt P22629)
Description: as §1, §2, §3

[5] = Sérum 1, NS3 positive, positivity threshold 2205
[6] = Sérum 2, NS3 positive, positivity threshold 3565
[7] = Sérum 3, NS3 positive, positivity threshold 4374
[8] = Sérum 4, NS3 positive, positivity threshold 2774
[9] = Sérum HCV-, positivity threshold 1271

Streptavidin Tetramethyl Rhodamine conjugate, sequence (P22629 37-163 limits assumed): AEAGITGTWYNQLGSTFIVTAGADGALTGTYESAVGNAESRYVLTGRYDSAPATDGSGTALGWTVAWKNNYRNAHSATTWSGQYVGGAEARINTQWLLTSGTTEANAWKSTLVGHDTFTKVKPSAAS
rhodamine-conjugated streptavidin, sequence (P22629 37-163 limits assumed): as above

## SVIPTSGDVV [Peptide 21]
[1]; [5]
  Fluorescence: 3553
[1]; [6]
  Fluorescence: 8321
[1]; [7]
  Fluorescence: 2244
[1]; [8]
  Fluorescence: 6853
[1]; [9]
  Fluorescence: 913

## PTSGDYVVVA [Peptide 24]
[1]; [5]
  Fluorescence: 1835
[1]; [6]
  Fluorescence: 1436
[1]; [7]
  Fluorescence: 1387
[1]; [8]
  Fluorescence: 3532
[1]; [9]
  Fluorescence: 573

## YGKAIPLEAI [Peptide 1]
[1]; [5]
  Fluorescence: 3735
[1]; [6]
  Fluorescence: 3143
[1]; [7]
  Fluorescence: 2608
[1]; [8]
  Fluorescence: 6357
[1]; [9]
  Fluorescence: 917

## AIPLEAIKGG [Peptide 4]
[1]; [5]
  Fluorescence: 2899
[1]; [6]
  Fluorescence: 2988
[1]; [7]
  Fluorescence: 2497
[1]; [8]
  Fluorescence: 5598
[1]; [9]
  Fluorescence: 1011

## SGLGINAVAY [Peptide 15]
[1]; [5]
  Fluorescence: 17944
[1]; [6]
  Fluorescence: 10603
[1]; [7]
  Fluorescence: 4786
[1]; [8]
  Fluorescence: 8262
[1]; [9]
  Fluorescence: 791

## VIPTSGDVVV [Peptide 22]
[1]; [5]
  Fluorescence: 1882
[1]; [6]
  Fluorescence: 1466
[1]; [7]
  Fluorescence: 1385
[1]; [8]
  Fluorescence: 2963
[1]; [9]
  Fluorescence: 648

## LDVSVIPTSG [Peptide 18]
[1]; [5]
  Fluorescence: 29857
[1]; [6]
  Fluorescence: 4113
[1]; [7]
  Fluorescence: 4824
[1]; [8]
  Fluorescence: 6209
[1]; [9]
  Fluorescence: 667

## PLEAIKGGRH [Peptide 6]
[1]; [5]
  Fluorescence: 2789
[1]; [6]
  Fluorescence: 3136
[1]; [7]
  Fluorescence: 2821
[1]; [8]
  Fluorescence: 5932
[1]; [9]
  Fluorescence: 957

## LAAKLSGLGI [Peptide 10]
[1]; [5]
  Fluorescence: 3166
[1]; [6]
  Fluorescence: 2418
[1]; [7]
  Fluorescence: 1684
[1]; [8]
  Fluorescence: 9152
[1]; [9]
  Fluorescence: 551

## IPLEAIKGGR [Peptide 5]
[1]; [5]
  Fluorescence: 2260
[1]; [6]
  Fluorescence: 2339
[1]; [7]
  Fluorescence: 1549
[1]; [8]
  Fluorescence: 4739
[1]; [9]
  Fluorescence: 945

## LEAIKGGRHL [Peptide 7]
[1]; [5]
  Fluorescence: 1845
[1]; [6]
  Fluorescence: 1307
[1]; [7]
  Fluorescence: 1084
[1]; [8]
  Fluorescence: 3077
[1]; [9]
  Fluorescence: 574

## GKAIPLEAIK [Peptide 2]
[1]; [5]
  Fluorescence: 3590
[1]; [6]
  Fluorescence: 8023
[1]; [7]
  Fluorescence: 3495
[1]; [8]
  Fluorescence: 7405
[1]; [9]
  Fluorescence: 933

## GLDVSVIPTS [Peptide 17]
[1]; [5]
  Fluorescence: 7976
[1]; [6]
  Fluorescence: 6423
[1]; [7]
  Fluorescence: 2619
[1]; [8]
  Fluorescence: 7338
[1]; [9]
  Fluorescence: 754

## EAIKGGRHLL [Peptide 8]
[1]; [5]
  Fluorescence: 2343
[1]; [6]
  Fluorescence: 1220
[1]; [7]
  Fluorescence: 1159
[1]; [8]
  Fluorescence: 2587
[1]; [9]
  Fluorescence: 525

## KAIPLEAIKG [Peptide 3]
[1]; [5]
  Fluorescence: 2803
[1]; [6]
  Fluorescence: 3161
[1]; [7]
  Fluorescence: 1694
[1]; [8]
  Fluorescence: 5065
[1]; [9]
  Fluorescence: 924

## ELAAKLSGLG [Peptide 9]
[1]; [5]
  Fluorescence: 1582
[1]; [6]
  Fluorescence: 1142
[1]; [7]
  Fluorescence: 1671
[1]; [8]
  Fluorescence: 2418
[1]; [9]
  Fluorescence: 508

## AAKLSGLGIN [Peptide 11]
[1]; [5]
  Fluorescence: 2156
[1]; [6]
  Fluorescence: 1557
[1]; [7]
  Fluorescence: 1458
[1]; [8]
  Fluorescence: 5283
[1]; [9]
  Fluorescence: 628

## IPTSGDVVVV [Peptide 23]
[1]; [5]
  Fluorescence: 2983
[1]; [6]
  Fluorescence: 3394
[1]; [7]
  Fluorescence: 1818
[1]; [8]
  Fluorescence: 4505
[1]; [9]
  Fluorescence: 904

## VSVIPTSGDV [Peptide 20]
[1]; [5]
  Fluorescence: 7909
[1]; [6]
  Fluorescence: 4711
[1]; [7]
  Fluorescence: 2873
[1]; [8]
  Fluorescence: 11266
[1]; [9]
  Fluorescence: 718

## H-Lys(biotin-G2)AYLAG-NH(CH2)3O(CH2)2O(CH2)2O(CH2)3NHCOCHO [pep-Biotine]
[2]; pep-Biotine 10^−3 mg/ml, biotin in competition 0 M
  mean fluorescence (6 spots): 29836
[2]; pep-Biotine 10^−3 mg/ml, biotin in competition 10^−3 M
  mean fluorescence (6 spots): 376
[2]; pep-Biotine 10^−3 mg/ml, biotin in competition 10^−4 M
  mean fluorescence (6 spots): 2237
[2]; pep-Biotine 10^−3 mg/ml, biotin in competition 10^−6 M
  mean fluorescence (6 spots): 16683
[2]; pep-Biotine 10^−3 mg/ml, biotin in competition 10^−7 M
  mean fluorescence (6 spots): 17132
[2]; pep-Biotine 10^−4 mg/ml, biotin in competition 0 M
  mean fluorescence (6 spots): 24666
[2]; pep-Biotine 10^−4 mg/ml, biotin in competition 10^−3 M
  mean fluorescence (6 spots): 207
[2]; pep-Biotine 10^−4 mg/ml, biotin in competition 10^−4 M
  mean fluorescence (6 spots): 961
[2]; pep-Biotine 10^−4 mg/ml, biotin in competition 10^−6 M
  mean fluorescence (6 spots): 9414
[2]; pep-Biotine 10^−4 mg/ml, biotin in competition 10^−7 M
  mean fluorescence (6 spots): 12178
[2]; pep-Biotine 10^−5 mg/ml, biotin in competition 0 M
  mean fluorescence (6 spots): 20902
[2]; pep-Biotine 10^−5 mg/ml, biotin in competition 10^−3 M
  mean fluorescence (6 spots): 107
[2]; pep-Biotine 10^−5 mg/ml, biotin in competition 10^−4 M
  mean fluorescence (6 spots): 322
[2]; pep-Biotine 10^−5 mg/ml, biotin in competition 10^−6 M
  mean fluorescence (6 spots): 3588
[2]; pep-Biotine 10^−5 mg/ml, biotin in competition 10^−7 M
  mean fluorescence (6 spots): 6129
[2]; pep-Biotine 10^−6 mg/ml, biotin in competition 0 M
  mean fluorescence (6 spots): 10737
[2]; pep-Biotine 10^−6 mg/ml, biotin in competition 10^−3 M
  mean fluorescence (6 spots): 78
[2]; pep-Biotine 10^−6 mg/ml, biotin in competition 10^−4 M
  mean fluorescence (6 spots): 189
[2]; pep-Biotine 10^−6 mg/ml, biotin in competition 10^−6 M
  mean fluorescence (6 spots): 2350
[2]; pep-Biotine 10^−6 mg/ml, biotin in competition 10^−7 M
  mean fluorescence (6 spots): 2611
[3]; pep-Biotine 10^−3 mg/ml, anti-biotin antibody 10^−1 mg/ml
  mean fluorescence (6 spots): 15350
[3]; pep-Biotine 10^−3 mg/ml, anti-biotin antibody 10^−2 mg/ml
  mean fluorescence (6 spots): 13113
[3]; pep-Biotine 10^−3 mg/ml, anti-biotin antibody 10^−3 mg/ml
  mean fluorescence (6 spots): 6828
[3]; pep-Biotine 10^−3 mg/ml, anti-biotin antibody 10^−4 mg/ml
  mean fluorescence (6 spots): 2271
[3]; pep-Biotine 10^−4 mg/ml, anti-biotin antibody 10^−1 mg/ml
  mean fluorescence (6 spots): 14721
[3]; pep-Biotine 10^−4 mg/ml, anti-biotin antibody 10^−2 mg/ml
  mean fluorescence (6 spots): 9121
[3]; pep-Biotine 10^−4 mg/ml, anti-biotin antibody 10^−3 mg/ml
  mean fluorescence (6 spots): 4981
[3]; pep-Biotine 10^−4 mg/ml, anti-biotin antibody 10^−4 mg/ml
  mean fluorescence (6 spots): 1535
[3]; pep-Biotine 10^−5 mg/ml, anti-biotin antibody 10^−1 mg/ml
  mean fluorescence (6 spots): 10932
[3]; pep-Biotine 10^−5 mg/ml, anti-biotin antibody 10^−2 mg/ml
  mean fluorescence (6 spots): 6849
[3]; pep-Biotine 10^−5 mg/ml, anti-biotin antibody 10^−3 mg/ml
  mean fluorescence (6 spots): 3377
[3]; pep-Biotine 10^−5 mg/ml, anti-biotin antibody 10^−4 mg/ml
  mean fluorescence (6 spots): 1249
[3]; pep-Biotine 10^−6 mg/ml, anti-biotin antibody 10^−1 mg/ml
  mean fluorescence (6 spots): 6606
[3]; pep-Biotine 10^−6 mg/ml, anti-biotin antibody 10^−2 mg/ml
  mean fluorescence (6 spots): 2947
[3]; pep-Biotine 10^−6 mg/ml, anti-biotin antibody 10^−3 mg/ml
  mean fluorescence (6 spots): 791
[3]; pep-Biotine 10^−6 mg/ml, anti-biotin antibody 10^−4 mg/ml
  mean fluorescence (6 spots): 385
[4]; pep-Biotine 10^−3 mg/ml, streptavidin 10^−1 mg/ml
  mean fluorescence (6 spots): 34660
[4]; pep-Biotine 10^−3 mg/ml, streptavidin 10^−3 mg/ml
  mean fluorescence (6 spots): 29836
[4]; pep-Biotine 10^−3 mg/ml, streptavidin 10^−4 mg/ml
  mean fluorescence (6 spots): 13816
[4]; pep-Biotine 10^−4 mg/ml, streptavidin 10^−1 mg/ml
  mean fluorescence (6 spots): 31781
[4]; pep-Biotine 10^−4 mg/ml, streptavidin 10^−3 mg/ml
  mean fluorescence (6 spots): 24666
[4]; pep-Biotine 10^−4 mg/ml, streptavidin 10^−4 mg/ml
  mean fluorescence (6 spots): 7931
[4]; pep-Biotine 10^−5 mg/ml, streptavidin 10^−1 mg/ml
  mean fluorescence (6 spots): 26524
[4]; pep-Biotine 10^−5 mg/ml, streptavidin 10^−3 mg/ml
  mean fluorescence (6 spots): 20902
[4]; pep-Biotine 10^−5 mg/ml, streptavidin 10^−4 mg/ml
  mean fluorescence (6 spots): 7673
[4]; pep-Biotine 10^−6 mg/ml, streptavidin 10^−1 mg/ml
  mean fluorescence (6 spots): 18500
[4]; pep-Biotine 10^−6 mg/ml, streptavidin 10^−3 mg/ml
  mean fluorescence (6 spots): 10737
[4]; pep-Biotine 10^−6 mg/ml, streptavidin 10^−4 mg/ml
  mean fluorescence (6 spots): 2124

## GLGINAVAYY [Peptide 16]
[1]; [5]
  Fluorescence: 4201
[1]; [6]
  Fluorescence: 5577
[1]; [7]
  Fluorescence: 1861
[1]; [8]
  Fluorescence: 5602
[1]; [9]
  Fluorescence: 931

## DVSVIPTSGD [Peptide 19]
[1]; [5]
  Fluorescence: 9088
[1]; [6]
  Fluorescence: 4111
[1]; [7]
  Fluorescence: 2337
[1]; [8]
  Fluorescence: 4939
[1]; [9]
  Fluorescence: 567
